The text below walks through data of patent publication US20050230662A1, “Diaminostilbene derivatives” (priority 1999, published 2005).

The data set can be described thus: evaluation of solubility in water (dissolving at 40° C., then deposition on ice bath at 0° C.). Type of data set: physicochemical. To be noted: for Solubility of 0° C.: time to deposition, aqueous solution (20 g/100 mL) on ice bath under stirring; for Solubility at 40° C.: time to dissolve 20 g sample in 100 mL water on warm bath at 40° C., stirred. As for the experimental part: Compounds I-1, I-2, I-4, I-11, I-12, and I-22 obtained above, and the Comparison Compounds a, b, c and d were subjected to evaluation of solubility in water.
Water (100 mL) was added to 20 g of each sample, and the mixture was placed on a warm bath (at 40° C.), and stirred using a magnetic stirrer, so that the added sample was dissolved in the warm water. Then, the obtained aqueous solution was placed on an ice bath under stirring.

Structures are written as SMILES.

Turning to `O=S(=O)([O-])CCNc1nc(NCC(O)CO)nc(Nc2ccc(C=Cc3ccc(Nc4nc(NCCS(=O)(=O)[O-])nc(NCC(O)CO)n4)cc3S(=O)(=O)[O-])c(S(=O)(=O)[O-])c2)n1.[Na+].[Na+].[Na+].[Na+]` (stereo not shown) [Comp. I-1], the “Solubility of 0° C.” value is “No deposition within 180 sec” and the “Solubility at 40° C.” value is “dissolved within 120 sec”. For `O=S(=O)([O-])CCNc1nc(NCCC(O)CO)nc(Nc2ccc(C=Cc3ccc(Nc4nc(NCCC(O)CO)nc(NCCS(=O)(=O)[O-])n4)cc3S(=O)(=O)[O-])c(S(=O)(=O)[O-])c2)n1.[Na+].[Na+].[Na+].[Na+]` (stereo not shown) [Comp. I-4], the “Solubility of 0° C.” value is “No deposition within 180 sec”. For `O=S(=O)([O-])CCNc1nc(NCCOCCO)nc(Nc2ccc(C=Cc3ccc(Nc4nc(NCCOCCO)nc(NCCS(=O)(=O)[O-])n4)cc3S(=O)(=O)[O-])c(S(=O)(=O)[O-])c2)n1.[Na+].[Na+].[Na+].[Na+]` [Comp. I-11], the “Solubility of 0° C.” value is reported as “No deposition within 180 sec” and the “Solubility at 40° C.” value was “dissolved within 120 sec”. Consider `O=S(=O)([O-])CCNc1nc(NCCCO)nc(Nc2ccc(C=Cc3ccc(Nc4nc(NCCCO)nc(NCCS(=O)(=O)[O-])n4)cc3S(=O)(=O)[O-])c(S(=O)(=O)[O-])c2)n1.[Na+].[Na+].[Na+].[Na+]` [Comp. a, reference compound], for which the “Solubility at 40° C.” value was “some insoluble remained at 300 sec”.

Consider `CC(C)(CO)CNc1nc(NCCS(=O)(=O)[O-])nc(Nc2ccc(C=Cc3ccc(Nc4nc(NCCS(=O)(=O)[O-])nc(NCC(C)(C)CO)n4)cc3S(=O)(=O)[O-])c(S(=O)(=O)[O-])c2)n1.[Na+].[Na+].[Na+].[Na+]` [Comp. b, reference compound], for which the “Solubility at 40° C.” value is recorded as “some insoluble remained at 300 sec”.
